From PubChem BioAssay (NCI)
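Interpolation was linear, between the two tested concentrations surrounding the appropriate level; five concentrations were tested over 48 hours in 96-well plates. Definition used: TGI = concentration required for complete inhibition of growth.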

How the values were obtained:
Experiment in all cases: NCI anticancer screen, dose series, 48 h
[1] = test system: SN12C renal
[2] = test system: SK-MEL-2 melanoma
[3] = test system: SK-MEL-28 melanoma
[4] = test system: SK-MEL-5 melanoma
[5] = test system: CAKI-1 renal
[6] = test system: KM12 colon
[7] = test system: MDA-MB-435
[8] = test system: SR leukemia
[9] = test system: NCI/ADR-RES ovarian
[10] = test system: SF-539 CNS
[11] = test system: OVCAR-8 ovarian
[12] = test system: IGROV1 ovarian
[13] = test system: DU-145 prostate
[14] = test system: NCI-H522 lung
[15] = test system: RXF 393 renal
[16] = test system: LOX IMVI melanoma
[17] = test system: BT-549 breast
[18] = test system: MOLT-4 leukemia
[19] = test system: HOP-62 NSCLC
[20] = test system: HS 578T breast
[21] = test system: OVCAR-4 ovarian
[22] = test system: MDA-N
[23] = test system: SK-OV-3 ovarian
[24] = test system: EKVX NSCLC
[25] = test system: TK-10 renal
[26] = test system: SNB-19 CNS
[27] = test system: HCT-15 colon
[28] = test system: RPMI-8226 leukemia
[29] = test system: UO-31 renal
[30] = test system: OVCAR-5 ovarian
[31] = test system: NCI-H460 lung
[32] = test system: HT29 colon
[33] = test system: UACC-62 melanoma
[34] = test system: MDA-MB-231 breast
[35] = test system: SNB-75 CNS
[36] = test system: 786-0 renal
[37] = test system: A549 NSCLC
[38] = test system: HOP-92 NSCLC
[39] = test system: T-47D breast
[40] = test system: OVCAR-3 ovarian
[41] = test system: PC-3 prostate
[42] = test system: COLO 205 colon
[43] = test system: M14 melanoma
[44] = test system: NCI-H226 lung
[45] = test system: SW-620 colon
[46] = test system: NCI-H23 lung
[47] = test system: MALME-3M melanoma
[48] = test system: A498 renal
[49] = test system: ACHN renal
[50] = test system: HCT-116 colon
[51] = test system: UACC-257 melanoma
[52] = test system: SF-268 CNS
[53] = test system: MCF7 breast
[54] = test system: SF-295 CNS
[55] = test system: U251 CNS
[56] = test system: K-562 leukemia
[57] = test system: HCC-2998 colon
[58] = test system: CCRF-CEM leukemia
[59] = test system: HL-60(TB) leukemia

`CC(C)(C)c1cc(C2=NNC(c3ccccc3)C2)cc(C(C)(C)C)c1O` (stereo unspecified) was tested, and the TGI [1] was 32.7 µM, the TGI [2] was 29.3 µM and the TGI [3] was 31.5 µM. It also gave a TGI [4] of 23 µM, a TGI [5] of 28.2 µM and a TGI [6] of 31.7 µM. The TGI [7] was 26.8 µM, the TGI [8] was 27.5 µM and the TGI [9] was 38.7 µM. For the same molecule, the TGI [10] was 44.7 µM, the TGI [11] was 31.7 µM and the TGI [12] was 30.2 µM. It also gave a TGI [13] of 30.3 µM, a TGI [14] of 28.4 µM and a TGI [15] of 23.2 µM. For the same molecule, the TGI [16] was 29.6 µM, the TGI [17] was 32 µM and the TGI [18] was > 100 µM. The TGI [19] was 33.3 µM, the TGI [20] was 55.6 µM and the TGI [21] was 33.2 µM. The TGI [22] was 28.5 µM, the TGI [23] was 38.2 µM and the TGI [24] was 36.6 µM. It also gave a TGI [25] of 29.4 µM, a TGI [26] of 36.4 µM and a TGI [27] of 31.2 µM. The TGI [28] was 43.8 µM, the TGI [29] was 30.3 µM and the TGI [30] was 40.9 µM. It also gave a TGI [31] of 29.7 µM, a TGI [32] of 50.3 µM and a TGI [33] of 28 µM. It also gave a TGI [34] of 27.5 µM, a TGI [35] of 25.3 µM and a TGI [36] of 29.6 µM. The TGI [37] was 34.5 µM, the TGI [38] was 31.2 µM and the TGI [39] was 26.8 µM. The TGI [40] was 14.6 µM, the TGI [41] was 27.7 µM and the TGI [42] was 31.7 µM. The TGI [43] was 34.1 µM, the TGI [44] was 32.8 µM and the TGI [45] was 34.3 µM. It also gave a TGI [46] of 33.7 µM, a TGI [47] of 34.7 µM and a TGI [48] of 29.7 µM. It also gave a TGI [49] of 29.8 µM, a TGI [50] of 28.3 µM and a TGI [51] of 27.5 µM. The TGI [52] was 36 µM, the TGI [53] was 27.7 µM and the TGI [54] was 37.7 µM. It also gave a TGI [55] of 28.8 µM.

`Clc1cc2c(cc1Cl)CC(NCCN1CCCC1)CC2` (stereo unspecified) gave a TGI [1] of 31.4 µM, a TGI [2] of 34.9 µM and a TGI [3] of 29.9 µM. For the same molecule, the TGI [4] was 14.7 µM, the TGI [5] was 30.2 µM and the TGI [56] was 48.9 µM. The TGI [6] was 32.3 µM, the TGI [7] was 14.4 µM and the TGI [8] was 38 µM. The TGI [9] was 27.8 µM, the TGI [10] was 28 µM and the TGI [11] was 31.1 µM. For the same molecule, the TGI [12] was 29 µM, the TGI [13] was 27.8 µM and the TGI [14] was 32.4 µM. For the same molecule, the TGI [16] was 27.2 µM, the TGI [17] was 28.8 µM and the TGI [18] was 60 µM. The TGI [19] was 30.7 µM, the TGI [20] was 42.4 µM and the TGI [21] was 35.9 µM. The TGI [22] was 14.3 µM, the TGI [23] was 34.9 µM and the TGI [57] was 8.02 µM. For the same molecule, the TGI [24] was 38.7 µM, the TGI [25] was 27.6 µM and the TGI [26] was 46.3 µM. For the same molecule, the TGI [27] was 26.5 µM, the TGI [58] was > 100 µM and the TGI [28] was 38.1 µM. The TGI [29] was 23.6 µM, the TGI [30] was 29.6 µM and the TGI [31] was 31.2 µM. For the same molecule, the TGI [32] was 18.1 µM, the TGI [33] was 8.15 µM and the TGI [34] was 30.3 µM. For the same molecule, the TGI [59] was 37.6 µM, the TGI [36] was 26.3 µM and the TGI [37] was 29.4 µM. For the same molecule, the TGI [39] was 25.5 µM, the TGI [40] was 32 µM and the TGI [41] was 30.3 µM. The TGI [42] was 10.7 µM, the TGI [43] was 25.4 µM and the TGI [44] was 32.1 µM. For the same molecule, the TGI [45] was 45.7 µM, the TGI [46] was 30.9 µM and the TGI [47] was 22.8 µM. The TGI [48] was 27.4 µM, the TGI [49] was 31.8 µM and the TGI [50] was 26.3 µM. The TGI [51] was 21.3 µM, the TGI [52] was 29.7 µM and the TGI [53] was 31 µM. The TGI [54] was 29.8 µM and the TGI [55] was 31.1 µM.
